Target: human GLP1R (hGLP1R) (Homo sapiens, UniProt P43220)
Assay: Human GLP1R cAMP agonist assay (GloSensor cAMP Assay)
Type: cell-based
Details: HEK293-SNAP-hGLP1R-GloSensor cells; for Emax: cAMP activity as percent of GLP1 (7-36) EC100 control; for EC50: intracellular cAMP, 12 min at rt
Description: Compounds of formula (I) according to the invention were tested in the following cellular assays that measure the intracellular cAMP concentration, beta-arrestin recruitment and receptor internalization. The cAMP is generated by the activation of GLP1R. The extent to which the GLP1R is internalized into the cell and away from the plasma membrane following activation is also shown in Table 2. EC50 for each assay is defined as the concentration of the compound that leads to half of the maximum response (after baseline correction). Emax is defined as the maximum response observed for the test compound, normalized to the maximum response observed for the endogenous ligand (GLP1(7-36)) to GLP1R.
Human GLP1R cAMP Agonist Assay
The agonist activity of compounds was determined using the GloSensor™ cAMP Assay (Promega Corp.), which measures changes in the intracellular concentration of cAMP after ligand activation of GPCRs. The assay uses a biosensor encoded by pGloSensor™-22F cAMP plasmid (Promega, cat #E2301) with cAMP binding domains fused to a mutant form of Photinus pyralis luciferase. Binding to cAMP causes conformational changes that promote large increases in light output, which can be measured by a luminescence detector. HEK293-SNAP-hGLP1R-GloSensor cells stably overexpressing the human GLP1 receptor (hGLP1R) and pGloSensor™-22F were seeded in white 384-well poly-D-Lysine coated plates (Greiner Bio One, cat #781945) in CO2-independent media (Gibco cat #18045-088 with 1.0% FBS, 2 mM L-glutamine, penicillin and streptomycin) and incubated overnight at 37° C., 5% CO2 with humidity. The assay was started the following morning by adding an equal volume of CO2-independent media containing 4% v/v dilution of the GloSensor substrate (Promega, cat #E1291) to all wells. The cell plate was incubated at rt for 2 h in the dark. The Biomek 7 (Beckman Coulter) instrument was used for the liquid handling steps. To generate duplicate dose response curves, 3-fold serially diluted compounds were added in to the cell assay plate to a final volume of 60 μL with final concentrations ranging from 30 μM through 0.06 μM in CO2-independent media containing 0.1% BSA, 0.5 mM IBMX and 0.4% DMSO. In the same plate and assay buffer as the tested compounds, were EC100 control wells containing GLP1 (7-36) peptide (Bachem, cat #H-6795) at a final concentration of 2 nM and also EC0 control wells containing no peptide. This plate was incubated at rt in the dark for 12 min after adding the compounds to the cells. Luminescence was then measured with an Envision 2104 Multilabel reader with “TRF Light Unit, 337 nm” (PerkinElmer) using the Ultra-Sensitive protocol setting “384-well US luminescence detector” with the 384-well luminescence aperture, 0.1 seconds per well. cAMP activity was calculated as percent of the GLP1 (7-36) EC100 control wells: [(sample signal−mean EC0 signal)/(mean EC100 of GLP1 (7-36) signal−mean EC0 signal)}*100. Curve fitting for EC50 determinations was performed in the Helios module of the software package DAVID. The 4-parameter logistic model, Hill slope was used: y=Ainf+(A0−Ainf)/(1+(x/AC50)^Hill Slope) where y is the functional response; x is the compound concentration; A0 is the minimum value (at 0 dose); Ainf is the maximum value (at infinite dose); AC50 corresponds to the point of inflection (i.e. the point on the sigmoid shaped curve halfway between A0 and Ainf). The EC50 value was represented by the AC50 value calculated from Helios in μM. Emax is the maximal activity detected within the concentration range, derived from the fitted curve.
327 μL of Opti-MEM medium (Gibco, cat #31985-062) were mixed with 12 μL of FuGENE® HD (Promega, cat #E2311) and incubated at rt for 5 min. Then 8.2 μL (4 μg, 0.485 μg/μL solution) of pSNAP-hGLP1R plasmid (Cisbio, cat #PSNAP-GLP1) encoding human GLP1R (NCBI Reference Sequence: NM_002062.3) fused with Cisbio's SNAP tag was added in to the Fugene HD/Opti-MEM mix, and incubated at rt for 20 min. […]

Chain of human GLP1R (hGLP1R) (P43220 24-463): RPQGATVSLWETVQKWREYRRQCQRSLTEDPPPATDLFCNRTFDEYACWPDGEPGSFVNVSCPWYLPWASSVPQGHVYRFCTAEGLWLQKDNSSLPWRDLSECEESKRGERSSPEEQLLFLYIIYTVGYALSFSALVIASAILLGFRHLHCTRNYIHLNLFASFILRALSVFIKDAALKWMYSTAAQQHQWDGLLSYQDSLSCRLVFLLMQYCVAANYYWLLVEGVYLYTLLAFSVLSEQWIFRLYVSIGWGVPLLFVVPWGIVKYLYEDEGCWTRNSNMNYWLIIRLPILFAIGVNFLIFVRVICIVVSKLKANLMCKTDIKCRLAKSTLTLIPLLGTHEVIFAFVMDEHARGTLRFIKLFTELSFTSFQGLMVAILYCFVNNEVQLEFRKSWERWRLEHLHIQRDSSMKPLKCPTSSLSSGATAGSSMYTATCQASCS

| SMILES | Emax [%] | EC50 [nM] |
| --- | --- | --- |
| Cc1nc(CN2CCC(c3cccc4c3O[C@@](C)(c3ccc(Cl)cc3F)O4)CC2)n(C[C@@H]2CCO2)c1-c1nc(C(=O)O)c(C)o1 [Compound C-1, 2-(2-((4-((S)-2-(4-chloro-2-fluorophenyl)-2-methylbenzo[d][1,3]dioxol-4-yl)piperidin-1-yl)methyl)-4-methyl-1-(((S)-oxetan-2-yl)methyl)-1H-imidazol-5-yl)-5-methyloxazole-4-carboxylic acid] | 110 | 0.056 |
| C[C@]1(c2ccc(Cl)cc2F)Oc2cccc(C3CCN(Cc4nc(C(F)(F)F)c(-c5nc(C(=O)O)co5)n4C[C@@H]4CCO4)CC3)c2O1 [Compound C-4, 2-(2-((4-((S)-2-(4-chloro-2-fluorophenyl)-2-methylbenzo[d][1,3]dioxol-4-yl)piperidin-1-yl)methyl)-1-(((S)-oxetan-2-yl)methyl)-4-(trifluoromethyl)-1H-imidazol-5-yl)oxazole-4-carboxylic acid] | 120 | 0.298 |
| CCc1nc(CN2CCC(c3cccc4c3O[C@@](C)(c3ccc(Cl)cc3F)O4)CC2)n(C[C@@H]2CCO2)c1-c1nc(C(=O)O)co1 [Compound C-5, 2-(2-((4-((S)-2-(4-chloro-2-fluorophenyl)-2-methylbenzo[d][1,3]dioxol-4-yl)piperidin-1-yl)methyl)-4-ethyl-1-(((S)-oxetan-2-yl)methyl)-1H-imidazol-5-yl)oxazole-4-carboxylic acid] | 123 | 0.0418 |
| CCc1nc(CN2CCC(c3cccc4c3O[C@@](C)(c3ccc(Cl)cc3F)O4)CC2)n(C[C@H]2CCO2)c1-c1nc(C(=O)O)co1 [Compound C-7, 2-(2-((4-((S)-2-(4-chloro-2-fluorophenyl)-2-methylbenzo[d][1,3]dioxol-4-yl)piperidin-1-yl)methyl)-4-ethyl-1-(((R)-oxetan-2-yl)methyl)-1H-imidazol-5-yl)oxazole-4-carboxylic acid] | 118 | 0.0351 |
| Cc1nc(CN2CCC(c3cccc4c3O[C@@](C)(c3ccc(Cl)cc3F)O4)CC2)n(C[C@@H]2CCO2)c1-c1nc(C(=O)O)co1 [Compound C-9, 2-(2-((4-((S)-2-(4-chloro-2-fluorophenyl)-2-methylbenzo[d][1,3]dioxol-4-yl)piperidin-1-yl)methyl)-4-methyl-1-(((S)-oxetan-2-yl)methyl)-1H-imidazol-5-yl)oxazole-4-carboxylic acid] | 107 | 0.103 |
| CCc1oc(-c2c(C)nc(CN3CCC(c4cccc5c4O[C@@](C)(c4ccc(Cl)cc4F)O5)CC3)n2C[C@@H]2CCO2)nc1C(=O)O [Compound C-10, 2-(2-((4-((S)-2-(4-chloro-2-fluorophenyl)-2-methylbenzo[d][1,3]dioxol-4-yl)piperidin-1-yl)methyl)-4-methyl-1-(((S)-oxetan-2-yl)methyl)-1H-imidazol-5-yl)-5-ethyloxazole-4-carboxylic acid] | 108 | 0.142 |
| Cc1oc(-c2nc(CN3CCC(c4cccc5c4O[C@@](C)(c4ccc(Cl)cc4F)O5)CC3)n(C[C@@H]3CCO3)c2C)nc1C(=O)O [Compound C-12, 2-(2-((4-((S)-2-(4-chloro-2-fluorophenyl)-2-methylbenzo[d][1,3]dioxol-4-yl)piperidin-1-yl)methyl)-5-methyl-1-(((S)-oxetan-2-yl)methyl)-1H-imidazol-4-yl)-5-methyloxazole-4-carboxylic acid] | 114 | 0.575 |
| Cc1c(-c2nc(C(=O)O)co2)nc(CN2CCC(c3cccc4c3O[C@@](C)(c3ccc(Cl)cc3F)O4)CC2)n1C[C@@H]1CCO1 [Compound C-13, 2-(2-((4-((S)-2-(4-chloro-2-fluorophenyl)-2-methylbenzo[d][1,3]dioxol-4-yl)piperidin-1-yl)methyl)-5-methyl-1-(((S)-oxetan-2-yl)methyl)-1H-imidazol-4-yl)oxazole-4-carboxylic acid] | 102 | 0.376 |
| Cc1c(-c2nc(C(F)(F)F)c(C(=O)O)o2)nc(CN2CCC(c3cccc4c3O[C@@](C)(c3ccc(Cl)cc3F)O4)CC2)n1C[C@@H]1CCO1 [Compound C-14, 2-(2-((4-((S)-2-(4-chloro-2-fluorophenyl)-2-methylbenzo[d][1,3]dioxol-4-yl)piperidin-1-yl)methyl)-5-methyl-1-(((S)-oxetan-2-yl)methyl)-1H-imidazol-4-yl)-4-(trifluoromethyl)oxazole-5-carboxylic acid] | 104 | 0.492 |
| Cc1c(-c2cnc(C(=O)O)o2)nc(CN2CCC(c3cccc4c3O[C@@](C)(c3ccc(Cl)cc3F)O4)CC2)n1C[C@@H]1CCO1 [Compound C-16, 5-(2-((4-((S)-2-(4-chloro-2-fluorophenyl)-2-methylbenzo[d][1,3]dioxol-4-yl)piperidin-1-yl)methyl)-5-methyl-1-(((S)-oxetan-2-yl)methyl)-1H-imidazol-4-yl)oxazole-2-carboxylic acid] | 108 | 0.171 |
| Cc1c(-c2cc(C(=O)O)n(C)n2)nc(CN2CCC(c3cccc4c3O[C@@](C)(c3ccc(Cl)cc3F)O4)CC2)n1C[C@@H]1CCO1 [Compound C-17, 3-(2-((4-((S)-2-(4-chloro-2-fluorophenyl)-2-methylbenzo[d][1,3]dioxol-4-yl)piperidin-1-yl)methyl)-5-methyl-1-(((S)-oxetan-2-yl)methyl)-1H-imidazol-4-yl)-1-methyl-1H-pyrazole-5-carboxylic acid] | 113 | 0.754 |
| Cc1c(-c2coc(C(=O)O)n2)nc(CN2CCC(c3cccc4c3O[C@@](C)(c3ccc(Cl)cc3F)O4)CC2)n1C[C@@H]1CCO1 [Compound C-18, 4-(2-((4-((S)-2-(4-chloro-2-fluorophenyl)-2-methylbenzo[d][1,3]dioxol-4-yl)piperidin-1-yl)methyl)-5-methyl-1-(((S)-oxetan-2-yl)methyl)-1H-imidazol-4-yl)oxazole-2-carboxylic acid] | 115 | 0.188 |
| Cc1cc(-c2nc(CN3CCC(c4cccc5c4O[C@@](C)(c4ccc(Cl)cc4F)O5)CC3)n(C[C@@H]3CCO3)c2C)oc1C(=O)O [Compound C-19, 5-(2-((4-((S)-2-(4-chloro-2-fluorophenyl)-2-methylbenzo[d][1,3]dioxol-4-yl)piperidin-1-yl)methyl)-5-methyl-1-(((S)-oxetan-2-yl)methyl)-1H-imidazol-4-yl)-3-methylfuran-2-carboxylic acid] | 109 | 0.377 |
| Cc1nc(CN2CCC(c3cccc4c3O[C@@](C)(c3ccc(Cl)cc3F)O4)CC2)n(C[C@@H]2CCO2)c1-c1coc(C(=O)O)n1 [Compound C-20, 4-(2-((4-((S)-2-(4-chloro-2-fluorophenyl)-2-methylbenzo[d][1,3]dioxol-4-yl)piperidin-1-yl)methyl)-4-methyl-1-(((S)-oxetan-2-yl)methyl)-1H-imidazol-5-yl)oxazole-2-carboxylic acid] | 112 | 0.24 |
| Cc1nc(CN2CCC(c3cccc4c3O[C@@](C)(c3ccc(Cl)cc3F)O4)CC2)n(C[C@@H]2CCO2)c1-c1cc(C(=O)O)n(C)n1 [Compound C-21, 3-(2-((4-((S)-2-(4-chloro-2-fluorophenyl)-2-methylbenzo[d][1,3]dioxol-4-yl)piperidin-1-yl)methyl)-4-methyl-1-(((S)-oxetan-2-yl)methyl)-1H-imidazol-5-yl)-1-methyl-1H-pyrazole-5-carboxylic acid] | 117 | 0.836 |

Reference: patent publication US20250145600A1, “2-((4-((S)-2-(4-CHLORO-2-FLUOROPHENYL)-2-METHYLBENZO[D][1,3]DIOXOL-4-YL)PIPERIDIN-1-YL)METHYL)-1-(((S)-OXETAN-2-YL)METHYL)-1H-IMIDAZOLE DERIVATIVES AS ACTIVATORS OF THE GLP1 RECEPTOR FOR THE TREATMENT OF OBESITY” (Novartis AG, priority 2022, published 2025)
